Experimental data from patent publication US11613686B2, “Associative copolymers with hydrophobic quaternized (meth)acrylamide and (meth)acrylic acid derivatives” (BASF SE, priority 2018, dated 2023).

Test: Solubility tests of monomer 1 in the monomer solution with auxiliary surfactants (additives)
Assay type: physicochemical
Procedure: In order to solubilize monomer 1 the monomer was first dissolved in ethanol and then added to the monomer solution. This approach is used for AIBN, which has a low solubility in the monomer solution, too. […] Therefore, the use of auxiliary surfactants (additives) was tested.
These tests were done in first instance with 0.1 mol % of 1-4.

Result (solubility of monomer 1) (Additive 1 Aromox C/12 2-20 eq, additive 2 Disponil A 1080 0-5 eq, same recipe): Not soluble***
Result (solubility of monomer 1) (Additive 1 Aromox MCD 2-20 eq, additive 2 Disponil A 1080 0-5 eq, same recipe): Not soluble***
Result (solubility of monomer 1) (Additive 1 C14TAB 2-20 eq, additive 2 Disponil A 1080 0-5 eq, same recipe): Not soluble***
Result (solubility of monomer 1) (Additive 1 Dehyquart E-CA 2-20 eq, additive 2 Disponil A 1080 0-5 eq, same recipe): Not soluble***
Result (solubility of monomer 1) (Additive 1 Deriphat 160 C 2-20 eq, additive 2 Disponil A 1080 0-5 eq, same recipe): Not soluble***
Result (solubility of monomer 1) (Additive 1 Disponil A 1080 2-20 eq, no additive 2, same recipe): Partly dissolved
Result (solubility of monomer 1) (Additive 1 Glucopon 225DK 2-20 eq, additive 2 Disponil A 1080 0-5 eq, same recipe): Not soluble***
Result (solubility of monomer 1) (Additive 1 Lutensol AO 11 2-20 eq, additive 2 Disponil A 1080 0-5 eq, same recipe): Not soluble***
Result (solubility of monomer 1) (Additive 1 Lutensol AT 18 2-20 eq, additive 2 Disponil A 1080 0-5 eq, same recipe): Not soluble***
Result (solubility of monomer 1) (Additive 1 Lutensol TO 129 2-20 eq, additive 2 Disponil A 1080 0-5 eq, same recipe): Not soluble***
Result (solubility of monomer 1) (Additive 1 Lutensol XP 100 2-20 eq, additive 2 Disponil A 1080 0-5 eq, same recipe): Not soluble***
Result (solubility of monomer 1) (Additive 1 SDS 2-20 eq, additive 2 Disponil A 1080 0-5 eq, same recipe): Not soluble***
Result (solubility of monomer 1) (Additive 1 Texapon NSO 2-20 eq, additive 2 Disponil A 1080 0-5 eq, same recipe): Not soluble***
Result (solubility of monomer 1) (no additive, recipe 27 mol % sodium acrylate, 72.9 mol % acrylamide, 0.1 mol % 1): Not soluble***
Structure (SMILES): C=C(C)C(=O)NCCC[N+](C)(C)CCCCCCCCCCCC [Monomer 1]
